These are literature values, as cited in patent US20090123956A1, “Measurement of the oxidants-antioxidants balance in liquids” (Samsung Electronics Co., Ltd., priority 2006, published 2009).

For this series the following is noted: change in absorbance at 450 nm (reference 620 or 570 nm) at equivalent molar concentration, uric acid = 1.

As for `N[C@@H](CCC(=O)N[C@@H](CS)C(=O)NCC(=O)O)C(=O)O` [GSH], the “relative activity in compare with uric acid” value (shortened to “relative activity in compare”) was “about 1”. With `Cc1c(C)c2c(c(C)c1O)CCC(C)(C(=O)O)O2` (stereo not drawn) [Trolox], the “relative activity in compare” value is given as “about 1”.

Regarding `O=C1O[C@H]([C@@H](O)CO)C(O)=C1O` [vitamin C], the “relative activity in compare” value was “about 1”.
